From ChEMBL document CHEMBL4680333, “Lipophilic tail modifications of 2-(hydroxymethyl)pyrrolidine scaffold reveal dual sphingosine kinase 1 and 2 inhibitors” (Bioorg Med Chem, 2021)

target: T1, Sphingosine kinase 2 (Homo sapiens) (UniProt Q9NRA0); test: Inhibition of recombinant human SphK2 assessed as decrease in [33P]SIP production at 0.3 uM using sphingosine as substrate in presence of [gamma33P]-ATP by scintillation counting method relative to control
T1 sequence (whole entry): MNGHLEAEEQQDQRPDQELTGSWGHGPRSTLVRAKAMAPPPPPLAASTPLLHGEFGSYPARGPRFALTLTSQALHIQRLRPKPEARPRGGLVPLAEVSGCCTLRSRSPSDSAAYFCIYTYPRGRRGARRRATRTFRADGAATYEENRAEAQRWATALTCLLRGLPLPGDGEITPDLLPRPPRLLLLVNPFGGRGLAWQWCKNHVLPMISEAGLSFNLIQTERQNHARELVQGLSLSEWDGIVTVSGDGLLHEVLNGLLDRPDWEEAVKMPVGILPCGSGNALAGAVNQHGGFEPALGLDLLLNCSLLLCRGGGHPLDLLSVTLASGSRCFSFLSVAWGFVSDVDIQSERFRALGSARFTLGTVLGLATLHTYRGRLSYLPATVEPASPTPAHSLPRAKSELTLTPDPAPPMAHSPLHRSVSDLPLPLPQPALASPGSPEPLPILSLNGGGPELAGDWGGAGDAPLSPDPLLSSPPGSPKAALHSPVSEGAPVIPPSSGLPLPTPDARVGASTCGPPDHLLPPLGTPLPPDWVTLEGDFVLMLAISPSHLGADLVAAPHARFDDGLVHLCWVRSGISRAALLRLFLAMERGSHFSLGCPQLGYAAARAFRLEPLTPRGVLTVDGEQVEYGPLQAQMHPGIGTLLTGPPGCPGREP

| Structure (SMILES) | inhibition [%] |
| --- | --- |
| CCCCCc1ccc(CCc2ccc(CN3CCC[C@@H]3CO)cc2)cc1 | 13 |
| CCCCCc1ccc(C#Cc2ccc(CN3CCC[C@@H]3CO)cc2)cc1 | 19 |
| CCCCc1ccc(C#Cc2ccc(CN3CCC[C@@H]3CO)cc2)cc1 | 25 |
| OC[C@H]1CCCN1Cc1ccc(Oc2ccc(-c3ccccc3)cc2)cc1 | 9 |
| CCCCCCCCCCc1ccc(CN2CCC[C@@H]2CO)cc1 | 54 |
| OC[C@H]1CCCN1Cc1ccc(Oc2cccc(-c3cccc(C(F)(F)F)c3)c2)cc1 | 11 |
| OC[C@H]1CCCN1Cc1ccc(Oc2ccc(-c3cccc(C(F)(F)F)c3)cc2)cc1 | 52 |
| OC[C@H]1CCCN1Cc1ccc(OCc2ccc(C(F)(F)F)cc2)cc1 | 0 |
| CC(C)(C)c1cccc(Oc2ccc(CN3CCC[C@@H]3CO)cc2)c1 | 11 |
| CCCCCCCCCCCc1ccc(CN2CCC[C@@H]2CO)cc1 | 18 |
| Cc1cc(/C=C/c2ccc(C(C)(C)C)cc2)ccc1CN1CCC[C@@H]1CO | 3 |
| CC(C)(C)c1ccc(Oc2ccc(CN3CCC[C@@H]3CO)cc2)cc1 | 22 |
| CCCCCCCCCCCc1ccc(CN2CCC[C@@H]2COC(C)=O)cc1 | 2 |
| COc1ccc(CCc2ccc(CN3CCC[C@@H]3CO)cc2)cc1 | 3 |
| CCCc1ccc(C#Cc2ccc(CN3CCC[C@@H]3CO)cc2)cc1 | 0 |
| CCCCCCCCCCOc1ccc(CN2CCC[C@@H]2CO)cc1 | 11 |
| CCCCCCCCOc1ccc(CN2CCC[C@@H]2CO)cc1 | 1 |
| OC[C@H]1CCCN1Cc1ccc(Oc2ccc(-c3ccc(C(F)(F)F)cc3)cc2)cc1 | 0 |
| CCCCCCCCCc1ccc(CN2CCC[C@@H]2CO)cc1 | 44 |
| Cc1ccc(CCc2ccc(CN3CCC[C@@H]3CO)cc2)cc1 | 26 |
| OC[C@H]1CCCN1Cc1ccc(/C=C/c2cccc(C(F)(F)F)c2)cc1 | 0 |
| CCCCCCCOc1ccc(CN2CCC[C@@H]2CO)cc1 | 0 |
| CCCCCCCCCCCCc1ccc(CN2CCC[C@@H]2CO)cc1 | 37 |
| OC[C@H]1CCCN1Cc1ccc(Oc2cccc(-c3ccc(C(F)(F)F)cc3)c2)cc1 | 1 |
| CCCCc1ccc(CCc2ccc(CN3CCC[C@@H]3CO)cc2)cc1 | 0 |
| CCCc1ccc(CCc2ccc(CN3CCC[C@@H]3CO)cc2)cc1 | 15 |
| CCCCCCCCCCCCc1ccc(CN2CCC[C@@H]2CO)c(C)c1 | 38 |
| CCCCCCCCCOc1ccc(CN2CCC[C@@H]2CO)cc1 | 44 |
| OC[C@H]1CCCN1Cc1ccc(Oc2cccc(-c3ccccc3)c2)cc1 | 0 |
| OC[C@H]1CCCN1Cc1ccc(Oc2ccccc2)cc1 | 13 |

target: T2, Sphingosine kinase 2 (Homo sapiens, UniProt Q9NRA0)
T2 sequence (Q9NRA0 whole entry): T1 sequence (whole entry)
Description: Inhibition of recombinant human SphK2 assessed as decrease in [33P]SIP production using sphingosine as substrate in presence of [gamma33P]-ATP by scintillation counting method

| Structure (SMILES) | Ki [nM] |
| --- | --- |
| CCCCCCCCOc1ccc(COc2ccc(-c3noc([C@@H]4CCCN4C(=N)N)n3)cc2C(F)(F)F)cc1 | 400 |
| CCCCCCCCCCCCc1ccc(CN2CCC[C@@H]2CO)cc1 | 951 |
